From ChEMBL document CHEMBL1130888, “Synthesis and anti-HIV activities of symmetrical N1,N3-dibenzyl-2-hydroxy-propane derivatives” (Bioorg Med Chem Lett, 1998)

Columns and labels:
MT4 [1] = assay: Cytotoxicity was evaluated against uninfected MT-4 cells; format: functional; details: Homo sapiens
MT4 [2] = assay: Inhibitory activity against syncytia formation in HIV-infected MT-4 cells was evaluated; Inactive; format: functional, cell-based, Homo sapiens
[3] = Partition coefficient (logP); format: physicochemical; details: octanol/water
MT4 [4] = assay: Inhibitory activity against syncytia formation in HIV-infected MT-4 cells was evaluated; 1-10 uM; format: functional, cell-based; details: Homo sapiens
MT4 [5] = assay: Inhibitory activity against syncytia formation in HIV-infected MT-4 cells was evaluated; format: functional, cell-based; details: Homo sapiens

logP ([3]; read-out: logP)	logP [3]	Compound	CC50 (MT4 [1])	IC50 (MT4 [2])	IC50 (MT4 [4])	IC50 (MT4 [5])
2.48	–	O=C(OC1CCOC1)N(Cc1ccccc1)CC(O)CN(Cc1ccccc1)C(=O)OC1CCOC1 (stereo unspecified)	50 µM	Not Active	–	–
5.39	–	CC(C)(C)OC(=O)N(Cc1ccccc1)CC(O)CN(Cc1ccccc1)C(=O)OC(C)(C)C	> 100 µM	–	1000 nM	–
2.94	–	O=C(OCC1CCCO1)N(Cc1ccccc1)CC(O)CN(Cc1ccccc1)C(=O)OCC1CCCO1 (stereo unspecified)	50 µM	Not Active	–	–
6.48	–	O=C(OCc1ccccc1)N(Cc1ccccc1)CC(O)CN(Cc1ccccc1)C(=O)OCc1ccccc1	10 µM	–	–	< 100 nM
0.04	–	O=C(N1CCOCC1)N(Cc1ccccc1)CC(O)CN(Cc1ccccc1)C(=O)N1CCOCC1	100 µM	Not Active	–	–
7.06	–	CN(C(=O)N(Cc1ccccc1)CC(O)CN(Cc1ccccc1)C(=O)N(C)c1ccccc1)c1ccccc1	> 100 µM	–	–	1000 nM
5.75	–	CC(C)COC(=O)N(Cc1ccccc1)CC(O)CN(Cc1ccccc1)C(=O)OCC(C)C	100 µM	–	–	1000 nM
3.99	–	CCOC(=O)N(Cc1ccccc1)CC(O)CN(Cc1ccccc1)C(=O)OCC	50 µM	Not Active	–	–
5.12	–	O=C(NCc1ccccc1)N(Cc1ccccc1)CC(O)CN(Cc1ccccc1)C(=O)NCc1ccccc1	> 100 µM	–	–	100 nM
–	10.35	CCCCCCCCOC(=O)N(Cc1ccccc1)CC(O)CN(Cc1ccccc1)C(=O)OCCCCCCCC	50 µM	–	–	10000 nM
4.07	–	O=C(OCC1CCCCO1)N(Cc1ccccc1)CC(O)CN(Cc1ccccc1)C(=O)OCC1CCCCO1 (stereo unspecified)	50 µM	Not Active	–	–
4.12	–	CC(C)(C)NC(=O)N(Cc1ccccc1)CC(O)CN(Cc1ccccc1)C(=O)NC(C)(C)C	> 100 µM	–	–	1000 nM
